Measurements: patent publication US12377104B1, “Methods for treating a fatty liver disease” (Madrigal Pharmaceuticals, Inc., priority 2024, dated 2025)

Columns and labels:
[1] = Effect of food (high-fat meal) on pharmacokinetics; assay type: in vivo, human; conditions: high-fat meal vs fasted
Protein binding = assay type: in vitro ADME
NASH patients = assay: MAESTRO-NASH: efficacy by baseline body weight and BMI; assay type: in vivo, human; conditions: for ≥30% Reduction in MRI-PDFF at Week 52, Assessment (%) / ≥120% Increase in SHBG at Week 52, Assessment (%): post hoc
Procedure: In the MAESTRO-NASH study, randomization to 80 mg and 100 mg doses was equal across all body weights. Analyses were conducted to provide additional evidence of a relationship between resmetirom dose, baseline body weight and body mass index (BMI), and safety/efficacy readouts. […] The only variable that determined exposure to resmetirom in the NASH population was body weight. […] Study median body weight was 100 kg. […] et al. (2024). CAP was stable over time, both doses showing a similar durable response (FIG. 30B).

CC(C)c1cc(Oc2c(Cl)cc(-n3nc(C#N)c(=O)[nH]c3=O)cc2Cl)n[nH]c1=O [Resmetirom, 2-(3,5-dichloro-4-((5-isopropyl-6-oxo-1,6-dihydropyridazin-3-yl)oxy)phenyl)-3,5-dioxo-2,3,4,5-tetrahydro-1,2,4-triazine-6-carbonitrile]
decrease in AUC with food [1]: 11% | decrease in Cmax with food [1]: 33% | Tmax ([1]; human, plasma, oral, read-out: delay in median Tmax with food): ~2 h | protein-bound (Protein binding): greater than 99% | Discontinued Study Prior to Week 52: number (NASH patients; 80 mg, 80-<90 kg): 6 | Discontinued Study Prior to Week 52: percentage (in parentheses) (NASH patients; 80 mg, 80-<90 kg): (10.3) | Week 52 MITT Consensus Fibrosis Improvement Responder: number (NASH patients; 80 mg, 80-<90 kg): 20 | Week 52 MITT Consensus Fibrosis Improvement Responder: percentage (in parentheses) (NASH patients; 80 mg, 80-<90 kg): (34.5) | Week 52 MITT Consensus NASH Resolution Responder: number (NASH patients; 80 mg, 80-<90 kg): 17 | Week 52 MITT Consensus NASH Resolution Responder: percentage (in parentheses) (NASH patients; 80 mg, 80-<90 kg): (29.3) | Week 52 Paired Biopsies Consensus Fibrosis Improvement Responder: number (NASH patients; 80 mg, 80-<90 kg): 20 | Week 52 Paired Biopsies Consensus Fibrosis Improvement Responder: percentage (in parentheses) (NASH patients; 80 mg, 80-<90 kg): (40.8) | Week 52 Paired Biopsies Consensus NASH Resolution Responder: number (NASH patients; 80 mg, 80-<90 kg): 17 | Week 52 Paired Biopsies Consensus NASH Resolution Responder: percentage (in parentheses) (NASH patients; 80 mg, 80-<90 kg): (34.7) | ≥30% reduction in MRI-PDFF at Week 52: number of patients (NASH patients; 80 mg, 80-<90 kg): 28 | ≥30% reduction in MRI-PDFF at Week 52: percentage of patients (in parentheses) (NASH patients; 80 mg, 80-<90 kg): (63.6) | ≥120% increase in SHBG at Week 52: number of patients (NASH patients; 80 mg, 80-<90 kg): 30 | ≥120% increase in SHBG at Week 52: percentage of patients (in parentheses) (NASH patients; 80 mg, 80-<90 kg): (56.6) | Discontinued Study Prior to Week 52: number (NASH patients; 80 mg, 90-<100 kg): 6 | Discontinued Study Prior to Week 52: percentage (in parentheses) (NASH patients; 80 mg, 90-<100 kg): (10.2) | Week 52 MITT Consensus Fibrosis Improvement Responder: number (NASH patients; 80 mg, 90-<100 kg): 15 | Week 52 MITT Consensus Fibrosis Improvement Responder: percentage (in parentheses) (NASH patients; 80 mg, 90-<100 kg): (25.4) | Week 52 MITT Consensus NASH Resolution Responder: number (NASH patients; 80 mg, 90-<100 kg): 15 | Week 52 MITT Consensus NASH Resolution Responder: percentage (in parentheses) (NASH patients; 80 mg, 90-<100 kg): (25.4) | Week 52 Paired Biopsies Consensus Fibrosis Improvement Responder: number (NASH patients; 80 mg, 90-<100 kg): 15 | Week 52 Paired Biopsies Consensus Fibrosis Improvement Responder: percentage (in parentheses) (NASH patients; 80 mg, 90-<100 kg): (30.6) | Week 52 Paired Biopsies Consensus NASH Resolution Responder: number (NASH patients; 80 mg, 90-<100 kg): 15 | Week 52 Paired Biopsies Consensus NASH Resolution Responder: percentage (in parentheses) (NASH patients; 80 mg, 90-<100 kg): (30.6) | ≥30% reduction in MRI-PDFF at Week 52: number of patients (NASH patients; 80 mg, 90-<100 kg): 28 | ≥30% reduction in MRI-PDFF at Week 52: percentage of patients (in parentheses) (NASH patients; 80 mg, 90-<100 kg): (62.2) | ≥120% increase in SHBG at Week 52: number of patients (NASH patients; 80 mg, 90-<100 kg): 28 | ≥120% increase in SHBG at Week 52: percentage of patients (in parentheses) (NASH patients; 80 mg, 90-<100 kg): (52.8) | Discontinued Study Prior to Week 52: number (NASH patients; 80 mg, 100-<110 kg): 3 | Discontinued Study Prior to Week 52: percentage (in parentheses) (NASH patients; 80 mg, 100-<110 kg): (6.5) | Week 52 MITT Consensus Fibrosis Improvement Responder: number (NASH patients; 80 mg, 100-<110 kg): 8 | Week 52 MITT Consensus Fibrosis Improvement Responder: percentage (in parentheses) (NASH patients; 80 mg, 100-<110 kg): (17.4) | Week 52 MITT Consensus NASH Resolution Responder: number (NASH patients; 80 mg, 100-<110 kg): 13 | Week 52 MITT Consensus NASH Resolution Responder: percentage (in parentheses) (NASH patients; 80 mg, 100-<110 kg): (28.3) | Week 52 Paired Biopsies Consensus Fibrosis Improvement Responder: number (NASH patients; 80 mg, 100-<110 kg): 8 | Week 52 Paired Biopsies Consensus Fibrosis Improvement Responder: percentage (in parentheses) (NASH patients; 80 mg, 100-<110 kg): (22.2) | Week 52 Paired Biopsies Consensus NASH Resolution Responder: number (NASH patients; 80 mg, 100-<110 kg): 13 | Week 52 Paired Biopsies Consensus NASH Resolution Responder: percentage (in parentheses) (NASH patients; 80 mg, 100-<110 kg): (36.1) | ≥30% reduction in MRI-PDFF at Week 52: number of patients (NASH patients; 80 mg, 100-<110 kg): 23 | ≥30% reduction in MRI-PDFF at Week 52: percentage of patients (in parentheses) (NASH patients; 80 mg, 100-<110 kg): (67.6) | ≥120% increase in SHBG at Week 52: number of patients (NASH patients; 80 mg, 100-<110 kg): 14 | ≥120% increase in SHBG at Week 52: percentage of patients (in parentheses) (NASH patients; 80 mg, 100-<110 kg): (34.1) | Discontinued Study Prior to Week 52: number (NASH patients; 80 mg, <80 kg): 6 | Discontinued Study Prior to Week 52: percentage (in parentheses) (NASH patients; 80 mg, <80 kg): (10.0) | Week 52 MITT Consensus Fibrosis Improvement Responder: number (NASH patients; 80 mg, <80 kg): 17 | Week 52 MITT Consensus Fibrosis Improvement Responder: percentage (in parentheses) (NASH patients; 80 mg, <80 kg): (28.3) | Week 52 MITT Consensus NASH Resolution Responder: number (NASH patients; 80 mg, <80 kg): 15 | Week 52 MITT Consensus NASH Resolution Responder: percentage (in parentheses) (NASH patients; 80 mg, <80 kg): (25.0) | Week 52 Paired Biopsies Consensus Fibrosis Improvement Responder: number (NASH patients; 80 mg, <80 kg): 17 | Week 52 Paired Biopsies Consensus Fibrosis Improvement Responder: percentage (in parentheses) (NASH patients; 80 mg, <80 kg): (34.7) | Week 52 Paired Biopsies Consensus NASH Resolution Responder: number (NASH patients; 80 mg, <80 kg): 15 | Week 52 Paired Biopsies Consensus NASH Resolution Responder: percentage (in parentheses) (NASH patients; 80 mg, <80 kg): (30.6) | ≥30% reduction in MRI-PDFF at Week 52: number of patients (NASH patients; 80 mg, <80 kg): 34 | ≥30% reduction in MRI-PDFF at Week 52: percentage of patients (in parentheses) (NASH patients; 80 mg, <80 kg): (73.9) | ≥120% increase in SHBG at Week 52: number of patients (NASH patients; 80 mg, <80 kg): 39 | ≥120% increase in SHBG at Week 52: percentage of patients (in parentheses) (NASH patients; 80 mg, <80 kg): (72.2) | ≥30% Reduction in MRI-PDFF at Week 52, Assessment (%) (NASH patients; 80 mg, body weight >100 kg): 56.7% | ≥120% Increase in SHBG at Week 52, Assessment (%) (NASH patients; 80 mg, body weight >100 kg): 29.6% | ≥30% Reduction in MRI-PDFF at Week 52, Assessment (%) (NASH patients; 80 mg, body weight ≤100 kg): 66.9% | ≥120% Increase in SHBG at Week 52, Assessment (%) (NASH patients; 80 mg, body weight ≤100 kg): 60.9% | Discontinued Study Prior to Week 52: number (NASH patients; 80 mg, ≥110 kg): 19 | Discontinued Study Prior to Week 52: percentage (in parentheses) (NASH patients; 80 mg, ≥110 kg): (19.2) | Week 52 MITT Consensus Fibrosis Improvement Responder: number (NASH patients; 80 mg, ≥110 kg): 17 | Week 52 MITT Consensus Fibrosis Improvement Responder: percentage (in parentheses) (NASH patients; 80 mg, ≥110 kg): (17.2) | Week 52 MITT Consensus NASH Resolution Responder: number (NASH patients; 80 mg, ≥110 kg): 17 | Week 52 MITT Consensus NASH Resolution Responder: percentage (in parentheses) (NASH patients; 80 mg, ≥110 kg): (17.2) | Week 52 Paired Biopsies Consensus Fibrosis Improvement Responder: number (NASH patients; 80 mg, ≥110 kg): 17 | Week 52 Paired Biopsies Consensus Fibrosis Improvement Responder: percentage (in parentheses) (NASH patients; 80 mg, ≥110 kg): (22.7) | Week 52 Paired Biopsies Consensus NASH Resolution Responder: number (NASH patients; 80 mg, ≥110 kg): 17 | Week 52 Paired Biopsies Consensus NASH Resolution Responder: percentage (in parentheses) (NASH patients; 80 mg, ≥110 kg): (22.7) | ≥30% reduction in MRI-PDFF at Week 52: number of patients (NASH patients; 80 mg, ≥110 kg): 33 | ≥30% reduction in MRI-PDFF at Week 52: percentage of patients (in parentheses) (NASH patients; 80 mg, ≥110 kg): (51.6) | ≥120% increase in SHBG at Week 52: number of patients (NASH patients; 80 mg, ≥110 kg): 21 | ≥120% increase in SHBG at Week 52: percentage of patients (in parentheses) (NASH patients; 80 mg, ≥110 kg): (28.0) | Discontinued Study Prior to Week 52: number (NASH patients; 100 mg, 80-<90 kg): 4 | Discontinued Study Prior to Week 52: percentage (in parentheses) (NASH patients; 100 mg, 80-<90 kg): (8.2) | Week 52 MITT Consensus Fibrosis Improvement Responder: number (NASH patients; 100 mg, 80-<90 kg): 13 | Week 52 MITT Consensus Fibrosis Improvement Responder: percentage (in parentheses) (NASH patients; 100 mg, 80-<90 kg): (26.5) | Week 52 MITT Consensus NASH Resolution Responder: number (NASH patients; 100 mg, 80-<90 kg): 16 | Week 52 MITT Consensus NASH Resolution Responder: percentage (in parentheses) (NASH patients; 100 mg, 80-<90 kg): (32.7)
